Data taken from patent publication US20100233096A1, “METHOD TO PRODUCE HYPERPOLARISED CARBOXYLATES AND SULPHONATES” (priority 2006, published 2010).

Assays:
[1] = compared with NH4-acetate or Ca-acetate; solubility data available in the literature; cited from earlier work
[2] = T1 relaxation in human full blood; assay type: physicochemical; conditions: human full blood at 37° C.
From the text: The amount of alanine, bicarbonate and lactate is dependent on the metabolic status of the tissue under investigation.

T1 relaxation [2] | SMILES | solubility in water [1]
– | CC(=O)[O-].[Cs+] [Cs-acetate] | higher solubility in water
about 42 s | CC(=O)[13C](=O)O [^13C-pyruvate] | –
